From PMC8703412 (Pharmaceuticals, 2021)
Converted amounts (≈) assume the structure as drawn. Like-named read-outs stand apart in the source and are kept apart here.

Assays:
[1] = system: Mycobacterium kansasii 6509/96 (clinical isolate); assay: MIC micromethod in Šula's medium, M. kansasii; format: cell-based; conditions: Mycobacterium kansasii
[2] = system: Mycobacterium tuberculosis strain 331/88 (i.e., H37Rv); assay: MIC micromethod in Šula's medium, drug-susceptible Mtb.; format: cell-based; conditions: Mycobacterium tuberculosis, H37RV
[3] = system: Mycobacterium avium 330/88; assay: MIC micromethod in Šula's medium, M. avium; format: cell-based; conditions: Mycobacterium avium
[4] = Cytotoxicity, CellTiter 96 (MTS) assay; conditions: human, Cytotoxicity for HepG2 cells, IC50, 24 h incubation, 1–1000 µM
[5] = 168 h, 7 d incubation, precursors, Table 2, read-out: MIC M. kansasii 6509/96 7 d
[6] = 336 h, 14 d incubation, precursors, Table 2, read-out: MIC M. kansasii 6509/96 14 d
[7] = 504 h, 21 d incubation, precursors, Table 2, read-out: MIC M. kansasii 6509/96 21 d
[8] = 336 h, 14 d incubation, precursors, Table 2, read-out: MIC Mtb. 331/88 14 d
[9] = 504 h, 21 d incubation, precursors, Table 2, read-out: MIC Mtb. 331/88 21 d
[10] = 330/88, 336 h, 14 d incubation, precursors, Table 2, read-out: MIC M. avium 330/88 14 d
[11] = 330/88, 504 h, 21 d incubation, precursors, Table 2, read-out: MIC M. avium 330/88 21 d
[12] = 168 h, read-out: MIC M. kansasii 6509/96 7 d
[13] = 168 h, 7 d incubation, Table 1, read-out: MIC M. kansasii 6509/96 7 d
[14] = 336 h, 14 d incubation, Table 1, read-out: MIC M. kansasii 6509/96 14 d
[15] = 504 h, 21 d incubation, Table 1, read-out: MIC M. kansasii 6509/96 21 d
[16] = 504 h, text summary over 7, 14 and 21 d, read-out: MIC for M. kansasii 6509/96
[17] = 336 h, 14 d incubation, esters, Table 1, read-out: MIC Mtb. 331/88 14 d
[18] = 504 h, 21 d incubation, esters, Table 1, read-out: MIC Mtb. 331/88 21 d
[19] = 330/88, 336 h, 14 d incubation, Table 1, read-out: MIC M. avium 330/88 14 d
[20] = 330/88, 504 h, 21 d incubation, Table 1, read-out: MIC M. avium 330/88 21 d

Oc1cccc2ccccc12 [1-naphthol, reference compound]
MIC [1, 5]: 125 µM (≈ 18 µg/mL)
MIC [1, 6]: 250 µM (≈ 36 µg/mL)
MIC [1, 7]: 500 µM (≈ 72.1 µg/mL)
MIC [2, 8]: 250 µM (≈ 36 µg/mL)
MIC [2, 9]: 500 µM (≈ 72.1 µg/mL)
MIC [3, 10]: 500 µM (≈ 72.1 µg/mL)
MIC [3, 11]: 500 µM (≈ 72.1 µg/mL)

Cc1ccc(C(C)C)c(O)c1 [Thymol, reference compound]
MIC [1, 12]: 125 µM (≈ 18.8 µg/mL)
MIC [1, 6]: 250 µM (≈ 37.6 µg/mL)
MIC [1, 7]: 500 µM (≈ 75.1 µg/mL)
MIC [2, 8]: 64 µM (≈ 9.61 µg/mL)
MIC [2, 9]: 125 µM (≈ 18.8 µg/mL)
MIC [3, 10]: 250 µM (≈ 37.6 µg/mL)
MIC [3, 11]: 500 µM (≈ 75.1 µg/mL)

C/C(=N\NC(=O)c1ccncc1)C(=O)Oc1ccc(Br)cc1 [3h, 4-Bromophenyl (E)-2-(2-isonicotinoylhydrazineylidene)propanoate]
MIC [1, 13]: 8 µM (≈ 2.9 µg/mL)
MIC [1, 14]: 8 µM (≈ 2.9 µg/mL)
MIC [1, 15]: 16 µM (≈ 5.79 µg/mL)
MIC [1, 16]: 8 to 16 µM (≈ 2.9 to 5.79 µg/mL)
melting point: 190 to 192 °C
MIC [2, 17]: ≤ 0.125 µM
MIC [2, 18]: 0.25 µM (≈ 0.0905 µg/mL)
IC50 at 24 h [4]: > 1000 µM
MIC [3, 19]: 250 µM (≈ 90.5 µg/mL)
MIC [3, 20]: 500 µM (≈ 181 µg/mL)

Cc1ncc([N+](=O)[O-])n1CCO [Metronidazole, reference compound]
MIC [1, 5]: 1000 µM (≈ 171 µg/mL)
MIC [1, 6]: > 1000 µM
MIC [1, 7]: > 1000 µM
MIC [2, 8]: > 1000 µM
MIC [2, 9]: > 1000 µM
MIC [3, 10]: > 1000 µM
MIC [3, 11]: > 1000 µM

C/C(=N\NC(=O)c1ccncc1)C(=O)Oc1ccc(C)cc1 [3c, p-Tolyl (E)-2-(2-isonicotinoylhydrazineylidene)propanoate]
MIC [1, 13]: 8 µM (≈ 2.38 µg/mL)
MIC [1, 14]: 8 µM (≈ 2.38 µg/mL)
MIC [1, 15]: 8 µM (≈ 2.38 µg/mL)
melting point: 168 to 170 °C
MIC [2, 17]: ≤ 0.25 µM
MIC [2, 18]: 0.5 µM (≈ 0.149 µg/mL)
IC50 at 24 h [4]: > 1000 µM
MIC [3, 19]: > 250 µM
MIC [3, 20]: > 250 µM

COc1ccc(OC(=O)/C(C)=N/NC(=O)c2ccncc2)cc1 [3d, 4-Methoxyphenyl (E)-2-(2-isonicotinoylhydrazineylidene)propanoate]
MIC [1, 13]: 4 µM (≈ 1.25 µg/mL)
MIC [1, 14]: 8 µM (≈ 2.51 µg/mL)
MIC [1, 15]: 8 µM (≈ 2.51 µg/mL)
melting point: 169 to 172 °C
MIC [2, 17]: 0.25 µM (≈ 0.0783 µg/mL)
MIC [2, 18]: 0.25 µM (≈ 0.0783 µg/mL)
IC50 at 24 h [4]: > 1000 µM
MIC [3, 19]: 500 µM (≈ 157 µg/mL)
MIC [3, 20]: 1000 µM (≈ 313 µg/mL)

C/C(=N\NC(=O)c1ccncc1)C(=O)Oc1ccccc1 [3b, Phenyl (E)-2-(2-isonicotinoylhydrazineylidene)propanoate]
MIC [1, 13]: 8 µM (≈ 2.27 µg/mL)
MIC [1, 14]: 8 µM (≈ 2.27 µg/mL)
MIC [1, 15]: 8 µM (≈ 2.27 µg/mL)
melting point: 186 to 189 °C
MIC [2, 17]: 0.125 µM (≈ 0.0354 µg/mL)
MIC [2, 18]: 0.25 µM (≈ 0.0708 µg/mL)
IC50 at 24 h [4]: > 1000 µM
MIC [3, 19]: > 250 µM
MIC [3, 20]: > 250 µM

C/C(=N\NC(=O)c1ccncc1)C(=O)Sc1ccccc1 [3s, S-Phenyl (E)-2-(2-isonicotinoylhydrazineylidene)propanethioate]
MIC [1, 13]: 1 µM (≈ 0.299 µg/mL)
MIC [1, 14]: 2 µM (≈ 0.599 µg/mL)
MIC [1, 15]: 4 µM (≈ 1.2 µg/mL)
melting point: 186 to 187 °C
MIC [2, 17]: 0.25 µM (≈ 0.0748 µg/mL)
MIC [2, 18]: 0.25 µM (≈ 0.0748 µg/mL)
IC50 at 24 h [4]: 182 µM
MIC [3, 19]: 250 µM (≈ 74.8 µg/mL)
MIC [3, 20]: 250 µM (≈ 74.8 µg/mL)

CC(=O)Nc1ccc(OC(=O)C(C)=NNC(=O)c2ccncc2)cc1 [3p, 4-Acetamidophenyl 2-(2-isonicotinoylhydrazineylidene)propanoate]
MIC [1, 13]: 8 µM (≈ 2.72 µg/mL)
MIC [1, 14]: 16 µM (≈ 5.45 µg/mL)
MIC [1, 15]: 16 µM (≈ 5.45 µg/mL)
MIC [1, 16]: 8 to 16 µM (≈ 2.72 to 5.45 µg/mL)
MIC [2, 17]: 0.25 µM (≈ 0.0851 µg/mL)
MIC [2, 18]: 0.5 µM (≈ 0.17 µg/mL)
IC50 at 24 h [4]: > 1000 µM
MIC [3, 19]: 1000 µM (≈ 340 µg/mL)
MIC [3, 20]: 1000 µM (≈ 340 µg/mL)

Oc1ccc2ccccc2c1 [2-naphthol, reference compound]
MIC [1, 12]: 250 µM (≈ 36 µg/mL)
MIC [1, 6]: 500 µM (≈ 72.1 µg/mL)
MIC [1, 7]: 500 µM (≈ 72.1 µg/mL)
MIC [2, 8]: 500 µM (≈ 72.1 µg/mL)
MIC [2, 9]: 500 µM (≈ 72.1 µg/mL)
MIC [3, 10]: 1000 µM (≈ 144 µg/mL)
MIC [3, 11]: 1000 µM (≈ 144 µg/mL)

C/C(=N\NC(=O)c1ccncc1)C(=O)Oc1ccc(F)cc1 [3f, 4-Fluorophenyl (E)-2-(2-isonicotinoylhydrazineylidene)propanoate]
MIC [1, 13]: 2 µM (≈ 0.603 µg/mL)
MIC [1, 14]: 4 µM (≈ 1.21 µg/mL)
MIC [1, 15]: 4 µM (≈ 1.21 µg/mL)
melting point: 174.1 to 177.2 °C
MIC [2, 17]: 0.25 µM (≈ 0.0753 µg/mL)
MIC [2, 18]: 0.5 µM (≈ 0.151 µg/mL)
IC50 at 24 h [4]: > 1000 µM
MIC [3, 19]: 500 µM (≈ 151 µg/mL)
MIC [3, 20]: 500 µM (≈ 151 µg/mL)
